The target in this assay is T1, VvCCD1 (Vitis vinifera, UniProt U3M7F6).
T1 construct: gene CCD1; 1715 bp coding region from Pinotage cDNA, NdeI/PstI in pTWIN1, expressed in carotenoid-accumulating E. coli
The assay can be described thus: co-expression in carotenoid-accumulating E. coli, HS-SPME GC/MS of volatile apocarotenoid. The class given is cell-based. The note with it: beta-carotene strain (pAC-BETA); product beta-ionone; Fe2+ and ascorbate added; room temperature, 16 h, dark.

T1 sequence (U3M7F6 1-542): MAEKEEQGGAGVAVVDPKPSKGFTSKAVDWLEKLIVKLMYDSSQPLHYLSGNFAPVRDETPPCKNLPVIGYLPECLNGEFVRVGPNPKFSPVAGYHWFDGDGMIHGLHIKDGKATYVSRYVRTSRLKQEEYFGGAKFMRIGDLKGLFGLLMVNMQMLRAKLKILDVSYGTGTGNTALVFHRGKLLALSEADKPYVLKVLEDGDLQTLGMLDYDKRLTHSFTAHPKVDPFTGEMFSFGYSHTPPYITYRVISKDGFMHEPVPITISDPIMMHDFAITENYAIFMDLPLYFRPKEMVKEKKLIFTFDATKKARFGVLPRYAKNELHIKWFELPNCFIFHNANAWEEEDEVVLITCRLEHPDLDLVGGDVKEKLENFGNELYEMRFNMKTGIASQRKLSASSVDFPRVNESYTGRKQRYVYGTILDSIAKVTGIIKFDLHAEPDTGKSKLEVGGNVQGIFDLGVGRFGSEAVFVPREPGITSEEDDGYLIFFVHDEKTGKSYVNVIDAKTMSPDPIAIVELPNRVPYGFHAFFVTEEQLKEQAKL

Consider `CC1=C(/C=C/C(C)=C/C=C/C(C)=C/C=C/C=C(C)/C=C/C=C(C)/C=C/C2=C(C)CCCC2(C)C)C(C)(C)CCC1` [β-carotene], for which the “co-expression in carotenoid-accumulating E. coli, HS-SPME GC/MS of volatile apoc” value is given as “Only VvCCD1, however, catalysed β-carotene cleavage to form β-ionone”.
